Assay results taken from US9028856B2, “Synergistic pesticide compositions” (priority 2008, dated 2015).

System: bedbug (Cimex lectularius), susceptible strain
Assay: Contact efficacy against bedbugs on filter papers in glass dishes
Type: in vivo
Protocol: Adult Cimex lectularius, susceptible strain, were used. A solution of the active ingredient in acetone was prepared. In the same mode a complete […]. All these works were done under drawing off conditions. After evaporation of the acetone (30′) the dishes were closed by a glass lid and transferred into the test room.
One day later ten bedbugs, anaesthetized with CO2, were counted into each dish. At regular intervals, knock down was recorded (cumulatively).
The same methodology was used as was used in Example 105.

[1] = 0.0000128% Deltamethrin in acetone, first test
[2] = 0.0000128% Deltamethrin in acetone, second test
[3] = 0.000064% Deltamethrin in acetone, first test
[4] = 0.000064% Deltamethrin in acetone, second test

CC1(C)[C@H](C(=O)O[C@H](C#N)c2cccc(Oc3ccccc3)c2)[C@@H]1C=C(Br)Br [deltamethrin]
% knock down or moribund after 1 h [1]: 0%
% knock down or moribund after 2 h [1]: 0%
% knock down or moribund after 4 h [1]: 0%
% knock down or moribund after 6 h [1]: 0%
% knock down or moribund after 1 d [1]: 20%
% knock down or moribund after 2 d [1]: 20%
% knock down or moribund after 6 d [1]: 20%
% knock down or moribund after 1 h [2]: 0%
% knock down or moribund after 2 h [2]: 0%
% knock down or moribund after 4 h [2]: 0%
% knock down or moribund after 6 h [2]: 0%
% knock down or moribund after 1 d [2]: 10%
% knock down or moribund after 2 d [2]: 10%
% knock down or moribund after 6 d [2]: 40%
% knock down or moribund after 1 h [3]: 20%
% knock down or moribund after 2 h [3]: 20%
% knock down or moribund after 4 h [3]: 70%
% knock down or moribund after 6 h [3]: 70%
% knock down or moribund after 1 d [3]: 70%
% knock down or moribund after 2 d [3]: 80%
% knock down or moribund after 6 d [3]: 100%
% knock down or moribund after 1 h [4]: 0%
% knock down or moribund after 2 h [4]: 40%
% knock down or moribund after 4 h [4]: 40%
% knock down or moribund after 6 h [4]: 40%
% knock down or moribund after 1 d [4]: 40%
% knock down or moribund after 2 d [4]: 60%
% knock down or moribund after 6 d [4]: 60%
